From EP4534088A1, “ARFOLITIXORIN FOR USE IN VITAMIN B6-ENHANCED, 5-FLUOROURACIL-BASED CHEMOTHERAPY OF CARCINOMAS” (priority 2023, dated 2025)
Values belong to the molecule of their own block, whether it stands above or below them.

What was measured:
thymidylate synthase = target: T1, thymidylate synthase (Homo sapiens, UniProt P04818); test: Modelle-001 Phase II clinical trial: TS inhibition in colorectal liver metastases (LC-MS/MS); assay type: in vivo; details: iv, i.v. bolus, with 500 mg/m2 5-FU, mean
T1 construct: from tissue; host or cells: colorectal liver metastasis tissue from human patients
Description: The difference in a clinical setting in human patients between leucovorin and arfolitixorin has been analyzed by Taflin et al. in the Modelle 001 Phase 2 clinical study (TS-inhibition in Colorectal Liver Metastases Comparing Arfolitixorin and Calciumfolinate), the primary objective of which is to compare the TS-inhibtion capacity of the combination Arfolitixorin/5-FU in contrast to Calciumfolinate/5-FU in tumour, adjacent liver parenchyma and plasma in patients with liver metastases from colorectal cancer (Study Details | Modelle 001, TS-inhibition in Colorectal Liver Metastases Comparing Arfolitixorin and Calciumfolinate | ClinicalTrials.gov) (Taflin 2023).
(§1) The effectiveness of arfolitixorin vs. leucovorin in Thymidylate Synthase inhibition and in achieving high levels of [6R] 5,10-methylenetetrahydrofolate in metastatic tissue was investigated in the Modelle-001 Phase II clinical trial named "A Single-blinded, Randomized Phase II study investigating the effects of two doses of Arfolitixorin compared to Calcium folinate together with 5-fluorouracil on thymidylate synthase in tumour and adjacent hepatic tissue for patients with liver metastases from colorectal cancer". Link: Study Details I Modelle 001, TS-inhibition in Colorectal Liver Metastases Comparing Arfolitixorin and Calciumfolinate I Clinical-Trials.gov.
(§2) Aim: The Modelle-001 trial was designed to explore how a single intravenous bolus injection of Arfo as compared to LV in the form of calcium folinate, together with 5-FU affects the inhibition of TS and, further, to investigate how different forms and doses of folates affect folate concentration and polyglutamation in metastatic liver tissue.
Patients and Methods: Thirty adult patients with biopsy-verified colorectal cancer and liver metastases indicated for surgical removal were included at two Swedish University Hospitals. Both synchronous and metachronous liver metastases were accepted and most patients had received preoperative chemotherapy. […] Folate levels and TS inhibition were determined by LC-MS/MS.

[1] = cited from earlier work
[2] = cited from earlier work; remark: listed apart in the source
[3] = [6R]-MTHF levels after arfolitixorin versus comparable leucovorin treatment; assay type: in vivo; details: fold higher than leucovorin
Description: Leucovorin and I-leucovorin, both currently approved for treatment of gastrointestinal and other cancers, need to be metabolically activated to [6R]-MTHF to potentiate the effect of 5-FU. This dependency on cellular activation provides a hurdle for reaching sufficient levels of the active [6R]-MTHF. […] Secondly, the enzymatic activation is genetically regulated^16,18, and is therefore associated with variability between individuals and conditions. Arfolitoxirin is believed to be efficacious in a larger proportion of patients with less inter- and intra-individual variability. These differences may potentially turn out to be of significant importance for increased clinical efficacy in 5-FU based cancer treatment.

[4] = Modelle-001 Phase II clinical trial: folate concentration and polyglutamation in metastatic liver tissue (LC-MS/MS); assay type: in vivo, human; details: compared to LV60; for ratio of poly/monoglutamated folates: after 5-FU administration
Description: as §1, §2
Patients and Methods: Thirty adult patients with biopsy-verified colorectal cancer and liver metastases indicated for surgical removal were included at two Swedish University Hospitals. Both synchronous and metachronous liver metastases were accepted and most patients had received preoperative chemotherapy. The first six patients received a reduced 5-FU dosage (250 mg/m2), and an independent safety committee gave permission to escalate to full dosage. Twenty-four patients were randomized to receive 500 mg/m2 5-FU either in combination with 60 mg/m2 LV (LV60, n = 12), 30 mg/m2 Arfo (A30, n = 6) or 120 mg/m2 Arfo (A120, n = 6) as a bolus regimen (a slow i.v. injection for three minutes). Metastatic tissue was collected 60 minutes after folate administration, then 5-FU was given. After a 60-minute break, metastatic tissue was again collected. Folate levels and TS inhibition were determined by LC-MS/MS.

solid tumors = test: Phase I/IIa study ISO-CC-005: tumour response to arfolitixorin doublet regimens (ARFIRI/ARFOX); assay type: in vivo, human; details: 120 mg/m^2 arfolitixorin and 5-FU with either irinotecan or oxaliplatin (ARFIRI/ARFOX)
Protocol: Arfolitixorin has been in development for a number of years and has been studied in several clinical studies.
The completion of the study was announced in January 2020. In total, 105 patients were included in the study. […] These patients had been treated with the "doublet" regimens comprising 120 mg/m^2 arfolitixorin and 5-fluorouracil (5-FU) with either irinotecan or oxaliplatin (ARFIRI/ARFOX). Out of the 31 patients, 17 were treated with an ARFOX regimen.

[5] = test system: advanced metastatic colorectal adenocarcinoma; details: FOLFIRINOX (± cetuximab) supplemented with pyridoxine in high doses, cited from earlier work

T1 sequence (P04818 2-313 limits assumed): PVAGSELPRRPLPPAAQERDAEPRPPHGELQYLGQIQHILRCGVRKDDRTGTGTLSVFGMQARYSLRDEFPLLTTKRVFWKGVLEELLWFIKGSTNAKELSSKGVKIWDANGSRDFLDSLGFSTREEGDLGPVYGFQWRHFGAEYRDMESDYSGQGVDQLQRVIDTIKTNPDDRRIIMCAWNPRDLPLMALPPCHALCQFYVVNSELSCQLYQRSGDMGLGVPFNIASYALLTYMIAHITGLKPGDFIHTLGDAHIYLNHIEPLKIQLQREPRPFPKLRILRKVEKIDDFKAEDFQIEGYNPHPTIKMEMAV

inhibition at 60 mg/m2 (thymidylate synthase; 60 mg/m2 Leucovorin (LV60)): 25.4%
SMILES: Nc1nc2c(c(=O)[nH]1)N(C=O)C(CNc1ccc(C(=O)N[C@@H](CCC(=O)O)C(=O)O)cc1)CN2 (stereo partly shown) [Leucovorin, 5-formyl tetrahydrofolic acid, reference compound]

SMILES: Cc1ncc(CO)c(CO)c1O.Cl [Pyridoxine hydrochloride]
stability in air ([1]; air): stable in air | stability to sunlight ([1]; sunlight): slowly affected by sunlight | volume of water in which one gram dissolves [2]: 5 mL

SMILES: Nc1nc2c(c(=O)[nH]1)N1CN(c3ccc(C(=O)N[C@@H](CCC(=O)O)C(=O)O)cc3)C[C@H]1CN2 [arfolitixorin, [6R]-5,10-methylenetetrahydrofolate]
[6R]-MTHF levels relative to comparable treatment with leucovorin [3]: 3-4 times | ratio of poly/monoglutamated folates ([4]; 30 mg/m2 (A30), p = 0.045): higher | 5,10-methylenetetrahydrofolate (CH2THF) concentrations in metastases ([4]; 30 mg/m2 (A30), after 5-FU treatment, p = 0.031): higher | 5,10-methylenetetrahydrofolate (CH2THF) concentrations in metastases ([4]; 30 mg/m2 (A30), before 5-FU treatment, p = 0.037): higher | ratio of poly/monoglutamated folates ([4]; 120 mg/m2 (A120), p = 0.0049): higher | 5,10-methylenetetrahydrofolate (CH2THF) concentrations in metastases ([4]; 120 mg/m2 (A120), after 5-FU treatment, p = 0.0023): higher | 5,10-methylenetetrahydrofolate (CH2THF) concentrations in metastases ([4]; 120 mg/m2 (A120), before 5-FU treatment, p = 0.0003): higher | best overall response rate (ORR) (solid tumors): 55% | inhibition at 30 mg/m2 (thymidylate synthase; 30 mg/m2 arfolitixorin (A30)): 54.2% | inhibition at 120 mg/m2 (thymidylate synthase; 120 mg/m2 arfolitixorin (A120)): 83.8%

SMILES: Cc1ncc(CO)c(CO)c1O [pyridoxine]
toxicity associated with the pyridoxine-modified protocols [5]: of the same magnitude as expected for the standard protocols | Antitumor activity ([5]; five patients, no controls): high for several patients
